Assay results from patent US20200022370A1, “MICROBIOCIDAL OXADIAZOLE DERIVATIVES” (SYNGENTA PARTICIPATIONS AG, priority 2016, published 2020).

Columns and labels:
[1] = test system: Puccinia recondita f. Sp. Tritici; assay: Puccinia recondita f. sp. tritici / wheat / leaf disc preventative (brown rust); assay type: in vivo; conditions: foliar, 200 ppm in the applied formulation, wheat leaf segments cv. Kanzler, inoculated 1 day after application, vs untreated, 7 to 9 days after application, read-out: disease control
Procedure: (§1) Leaf disks or leaf segments of various plant species are cut from plants grown in a greenhouse. The cut leaf disks or segments are placed in multiwell plates (24-well format) onto water agar. The leaf disks are sprayed with a test solution before (preventative) or after (curative) inoculation. Compounds to be tested are prepared as DMSO solutions (max. 10 mg/ml) which are diluted to the appropriate concentration with 0.025% Tween20 just before spraying. The inoculated leaf disks or segments are incubated under defined conditions (temperature, relative humidity, light, etc.) according to the respective test system. A single evaluation of disease level is carried out 3 to 14 days after inoculation, depending on the pathosystem. Percent disease control relative to the untreated check leaf disks or segments is then calculated.
Example 1: Fungicidal Activity Against Puccinia recondita f. Sp. Tritici/Wheat/Leaf Disc Preventative (Brown Rust)
Wheat leaf segments cv. Kanzler were placed on agar in multiwell plates (24-well format) and sprayed with the Formulated test compound diluted in water. The leaf disks were inoculated with a spore suspension of the fungus 1 day after application. The inoculated leaf segments were incubated at 19° C. and 75% relative humidity (rh) under a light regime of 12 hours light/12 hours darkness in a climate cabinet and the activity of a compound was assessed as percent disease control compared to untreated when an appropriate level of disease damage appears in untreated check leaf segments (7 to 9 days after application).
(§2) The following compounds at 200 ppm in the applied Formulation give at least 80% disease control in this test when compared to untreated control leaf disks under the same conditions, which show extensive disease development.

Phakopsora pachyrhizi = Phakopsora pachyrhizi / soybean / leaf disc preventative (Asian soybean rust); assay type: in vivo; conditions: foliar, 200 ppm in the applied formulation, soybean leaf disks, inoculated one day after application, vs untreated, 12 to 14 days after application, read-out: disease control
Procedure: as §1
Example 3: Fungicidal Activity Against Phakopsora pachyrhizi/Soybean/Leaf Disc Preventative (Asian Soybean Rust)
Soybean leaf disks are placed on water agar in multiwell plates (24-well format) and sprayed with the Formulated test compound diluted in water. One day after application leaf discs are inoculated by spraying a spore suspension on the lower leaf surface. After an incubation period in a climate cabinet of 24-36 hours in darkness at 20° C. and 75% rh leaf disc are kept at 20° C. with 12 h light/day and 75% rh. The activity of a compound is assessed as percent disease control compared to untreated when an appropriate level of disease damage appears in untreated check leaf disks (12 to 14 days after application).
as §2

[2] = test system: Glomerella lacenarium (Colletotrichum lacenarium); assay: Glomerella lacenarium (Colletotrichum lacenarium) liquid culture / cucumber / preventative (anthracnose); assay type: cell-based; conditions: 20 ppm, liquid culture in PDB, 24° C., inhibition of growth measured photometrically 3 to 4 days after application, vs untreated, read-out: disease control
Procedure: Mycelia fragments or conidia suspensions of a fungus prepared either freshly from liquid cultures of the fungus or from cryogenic storage, are directly mixed into nutrient broth. DMSO solutions of the test compound (max. 10 mg/ml) are diluted with 0.025% Tween20 by a factor of 50 and 10 μl of this solution is pipetted into a microtiter plate (96-well format). The nutrient broth containing the fungal spores/mycelia fragments is then added to give an end concentration of the tested compound. The test plates are incubated in the dark at 24° C. and 96% relative humidity. The inhibition of fungal growth is determined photometrically after 2 to 7 days, depending on the pathosystem, and percent antifungal activity relative to the untreated check is calculated.
Example 4: Fungicidal Activity Against Glomerella lacenarium (Colletotrichum lacenarium) Liquid Culture/Cucumber/Preventative (Anthracnose)
Conidia of the fungus from cryogenic storage are directly mixed into nutrient broth (PDB-potato dextrose broth). After placing a (DMSO) solution of test compound into a microtiter plate (96-well format), the nutrient broth containing the fungal spores is added. The test plates are incubated at 24° C. and the inhibition of growth is measured photometrically 3 to 4 days after application.
The following compounds at 20 ppm in the applied Formulation give at least 80% disease control in this test when compared to untreated control under the same conditions, which show extensive disease development.

SMILES | pest or weed control at 200 ppm [1] [%] | pest or weed control at 200 ppm (Phakopsora pachyrhizi) [%] | inhibition of growth at 20 ppm [2] [%]
O=C(Cc1ccc2c(c1)OCO2)Nc1ccc(-c2noc(C(F)(F)F)n2)cc1 [Compound 1.12, 2-(1,3-benzodioxol-5-yl)-N-[4-[5-(trifluoromethyl)-1,2,4-oxadiazol-3-yl]phenyl]acetamide] | ≥ 80 | ≥ 80 | ≥ 80
CCC(=O)Nc1ccc(CC(=O)Nc2ccc(-c3noc(C(F)(F)F)n3)cc2)cc1 [Compound 1.27, N-[4-[2-oxo-2-[4-[5-(trifluoromethyl)-1,2,4-oxadiazol-3-yl]anilino]ethyl]phenyl]propanamide] |  | ≥ 80 | 
COc1ncnc(OC)c1CC(=O)Nc1ccc(-c2noc(C(F)(F)F)n2)cc1 [Compound 1.36, 2-(4,6-dimethoxypyrimidin-5-yl)-N-[4-[5-(trifluoromethyl)-1,2,4-oxadiazol-3-yl]phenyl]acetamide] | ≥ 80 | ≥ 80 | ≥ 80
COCc1nc(C)c(C(=O)Nc2ccc(-c3noc(C(F)(F)F)n3)nc2)s1 [Compound 1.51, 2-(methoxymethyl)-4-methyl-N-[6-[5-(trifluoromethyl)-1,2,4-oxadiazol-3-yl]-3-pyridyl]thiazole-5-carboxamide] |  | ≥ 80 | 
CC(C)(C(=O)Nc1ccc(-c2noc(C(F)(F)F)n2)nc1)c1ncc(Cl)cc1Cl [Compound 1.53, 2-(3,5-dichloro-2-pyridyl)-2-methyl-N-[6-[5-(trifluoromethyl)-1,2,4-oxadiazol-3-yl]-3-pyridyl]propanamide] |  | ≥ 80 | 
O=C(Nc1ccc(-c2noc(C(F)(F)F)n2)cc1)C1=CCCC1 [Compound 1.81, N-[4-[5-(trifluoromethyl)-1,2,4-oxadiazol-3-yl]phenyl] cyclopentene-1-carboxamide] |  | ≥ 80 | ≥ 80
CCC(CC)C(=O)Nc1ccc(-c2noc(C(F)(F)F)n2)cc1 [Compound 1.91, 2-ethyl-N-[4-[5-(trifluoromethyl)-1,2,4-oxadiazol-3-yl]phenyl]butanamide] |  | ≥ 80 | ≥ 80
CC(=O)OCC(=O)Nc1ccc(-c2noc(C(F)(F)F)n2)cc1 [Compound 1.95, [2-oxo-2-[4-[5-(trifluoromethyl)-1,2,4-oxadiazol-3-yl]anilino]ethyl] acetate] | ≥ 80 |  | ≥ 80
O=C(Nc1ccc(-c2noc(C(F)(F)F)n2)cc1)C1CCSCC1 [Compound 1.96, N-[4-[5-(trifluoromethyl)-1,2,4-oxadiazol-3-yl]phenyl] tetrahydrothiopyran-4-carboxamide] | ≥ 80 |  | ≥ 80
O=C(CC1CC(F)(F)C1)Nc1ccc(-c2noc(C(F)(F)F)n2)cc1 [Compound 1.97, 2-(3,3-difluorocyclobutyl)-N-[4-[5-(trifluoromethyl)-1,2,4-oxadiazol-3-yl]phenyl]acetamide] | ≥ 80 |  | ≥ 80
O=C(CCCC=C(F)F)Nc1ccc(-c2noc(C(F)(F)F)n2)cc1 [Compound 1.98, 6,6-difluoro-N-[4-[5-(trifluoromethyl)-1,2,4-oxadiazol-3-yl]phenyl]hex-5-enamide] | ≥ 80 |  | ≥ 80
O=C(Cc1ccccc1F)Nc1ccc(-c2noc(C(F)(F)F)n2)cc1 [Compound 1.100, 2-(2-fluorophenyl)-N-[4-[5-(trifluoromethyl)-1,2,4-oxadiazol-3-yl]phenyl]acetamide] | ≥ 80 |  | ≥ 80
CC(CO)(CCl)C(=O)Nc1ccc(-c2noc(C(F)(F)F)n2)cc1 (centres unmarked) [Compound 1.103, 2-(chloromethyl)-3-hydroxy-2-methyl-N-[4-[5-(trifluoromethyl)-1,2,4-oxadiazol-3-yl]phenyl] propanamide] | ≥ 80 |  | ≥ 80
O=C(CCc1cccnc1)Nc1ccc(-c2noc(C(F)(F)F)n2)cc1 [Compound 1.105, 3-(3-pyridyl)-N-[4-[5-(trifluoromethyl)-1,2,4-oxadiazol-3-yl]phenyl] propanamide] | ≥ 80 |  | ≥ 80
O=C1CC(C(=O)Nc2ccc(-c3noc(C(F)(F)F)n3)cc2)C1 [Compound 1.106, 3-oxo-N-[4-[5-(trifluoromethyl)-1,2,4-oxadiazol-3-yl]phenyl]cyclo-butanecarboxamide] | ≥ 80 |  | ≥ 80
O=C(Nc1ccc(-c2noc(C(F)(F)F)n2)cc1)C1OCCO1 [Compound 1.113, N-[4-[5-(trifluoromethyl)-1,2,4-oxadiazol-3-yl]phenyl]-1,3-dioxolane-2-carboxamide] | ≥ 80 |  | ≥ 80
O=C(Cc1cc(C(F)(F)F)ccn1)Nc1ccc(-c2noc(C(F)(F)F)n2)cc1 [Compound 1.115, N-[4-[5-(trifluoromethyl)-1,2,4-oxadiazol-3-yl]phenyl]-2-[4-(trifluoromethyl)-2-pyridyl]acetamide] | ≥ 80 |  | ≥ 80
O=C(Nc1ccc(-c2noc(C(F)(F)F)n2)cc1)C(F)F [Compound 1.120, 2,2-difluoro-N-[4-[5-(trifluoromethyl)-1,2,4-oxadiazol-3-yl]phenyl]acetamide] | ≥ 80 |  | ≥ 80
COCCOCC(=O)Nc1ccc(-c2noc(C(F)(F)F)n2)cc1 [Compound 1.122, 2-(2-methoxyethoxy)-N-[4-[5-(trifluoromethyl)-1,2,4-oxadiazol-3-yl]phenyl]acetamide] | ≥ 80 |  | ≥ 80
CN(C(=O)C1CC1(F)F)c1ccc(-c2noc(C(F)(F)F)n2)cc1 (centres unmarked) [Compound 1.133, 2,2-difluoro-N-methyl-N-[4-[5-(trifluoromethyl)-1,2,4-oxadiazol-3-yl]phenyl]cyclo-propanecarboxamide] |  | ≥ 80 | 
CC1CC1C(=O)N(C)c1ccc(-c2noc(C(F)(F)F)n2)cc1 (centres unmarked) [Compound 1.137, N,2-dimethyl-N-[4-[5-(trifluoromethyl)-1,2,4-oxadiazol-3-yl]phenyl]cyclo-propanecarboxamide] |  | ≥ 80 | ≥ 80
CN(C(=O)C1(C)CC1)c1ccc(-c2noc(C(F)(F)F)n2)cc1 [Compound 1.138, N,1-dimethyl-N-[4-[5-(trifluoromethyl)-1,2,4-oxadiazol-3-yl]phenyl]cyclo-propanecarboxamide] |  | ≥ 80 | 
O=C(Nc1ccc(-c2noc(C(F)(F)F)n2)cc1)C1CCCC1 [Compound 2.6, N-[4-[5-(trifluoromethyl)-1,2,4-oxadiazol-3-yl]phenyl] cyclopentane-carboxamide] | ≥ 80 |  | ≥ 80
O=C(Nc1ccc(-c2noc(C(F)(F)F)n2)cc1)C1CCC1 [Compound 2.9, N-[4-[5-(trifluoromethyl)-1,2,4-oxadiazol-3-yl]phenyl] cyclobutane-carboxamide] | ≥ 80 |  | ≥ 80
CCC(=O)N(OC)c1ccc(-c2noc(C(F)(F)F)n2)cc1 [Compound 2.28, N-methoxy-N-[4-[5-(trifluoromethyl)-1,2,4-oxadiazol-3-yl]phenyl] propanamide] |  | ≥ 80 | ≥ 80
